Data: PMC4971072, “Chemically Homogenous Compounds with Antagonistic Properties at All α1-Adrenoceptor Subtypes but not β1-Adrenoceptor Attenuate Adrenaline-Induced Arrhythmia in Rats” (Frontiers in Pharmacology, 2016)
Counter-ions that a name gives are not always drawn. Marks after values point to notes of the source that are not given here.

Assays:
[1] = system: adrenaline-induced arrhythmia in rats; assay: Prophylactic antiarrhythmic activity in adrenaline-induced arrhythmia; type: in vivo, rat; details: for ED50: Rattus norvegicus, read-out: ED50 (confidence limits)
Protocol: The studied compounds were administered i.p. 45 min before the injection of adrenaline, calcium chloride, or barium chloride. The electrocardiogram (ECG) was recorded during the first 2 min as well as in the 5th, 10th, and 15th min after the arrhythmogen injection. […]

α1B-adrenoceptors = target: T1, α1B-adrenoceptors (Mus musculus, UniProt P97717); assay: Functional bioassay, isolated mouse spleen, noradrenaline contraction; type: biochemical; details: noradrenaline as agonist; for Kb: read-out: pA2 ± S.E.M., α1B (converted)
T1 construct: The spleen was removed from male mice; from tissue; host or cells: isolated mouse spleen
T1 sequence (P97717 1-514): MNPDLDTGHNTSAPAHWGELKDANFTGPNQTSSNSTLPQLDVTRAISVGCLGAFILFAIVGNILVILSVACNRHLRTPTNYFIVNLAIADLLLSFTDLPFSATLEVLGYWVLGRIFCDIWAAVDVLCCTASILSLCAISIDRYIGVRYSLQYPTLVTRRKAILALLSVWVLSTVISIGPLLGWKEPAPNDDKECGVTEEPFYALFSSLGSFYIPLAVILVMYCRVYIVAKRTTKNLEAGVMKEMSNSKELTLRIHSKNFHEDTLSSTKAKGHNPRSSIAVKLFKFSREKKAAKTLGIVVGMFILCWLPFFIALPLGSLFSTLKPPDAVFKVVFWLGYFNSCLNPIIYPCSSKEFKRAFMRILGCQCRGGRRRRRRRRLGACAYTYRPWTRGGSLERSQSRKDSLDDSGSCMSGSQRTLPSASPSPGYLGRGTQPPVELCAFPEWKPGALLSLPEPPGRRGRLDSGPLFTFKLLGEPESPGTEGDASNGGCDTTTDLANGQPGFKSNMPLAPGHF
Protocol: The influence on α1B-adrenoceptors was evaluated using the isolated mouse spleen. The spleen was removed from male mice right after killing the anesthetized animal by cervical dislocation. […] The initial optimal tissues tension was set at 1.0 g. Through the 100 min of equilibration tissues were stimulated with noradrenaline (0.1−10.0 μM) three times with washing out until the contractile response become constant. Two cumulative concentration-response curves to noradrenaline, at an interval of 60 min, were established on each tissue both in the presence and absence of antagonist. The incubation with antagonists went on for 30 min. The experiments were carried out in the constant presence of propranolol (1 μM) to block β-adrenoceptors, and minimize the involvement of these adrenoceptors in the response to noradrenaline.
(§1) Data are means ± S.E.M. of at least 4 separate experiments. To establish Hill slopes for the agonist concentration–response curves and calculate EC50 values, curves were fitted to all the data by non-linear regression. The EC50 value in the presence and absence of antagonists was used to ascertain the concentration ratio (CR). Schild analysis was performed.

β1-adrenergic receptor = target: T2, β1-adrenergic receptor (Rattus norvegicus, UniProt P18090); assay: β1-adrenoceptor radioligand binding assay ([3H]-CGP-12177, rat cerebral cortex); details: read-out: Adrenergic receptors Ki β1
T2 construct: The brains were homogenized in 20 volumes of an ice-cold 50 mM Tris-HCl buffer; from tissue; host or cells: rat cerebral cortex membranes
Protocol: The α1- and β1-adrenoceptor radioligand binding assay was performed on rat cerebral cortex. […] The cell pellet was resuspended in the Tris–HCl buffer and centrifuged again. Radioligand binding assays were performed in plates (MultiScreen/Millipore). […] The incubation was terminated by rapid filtration through glass fiber filters (Whatman GF/C) using a vacuum manifold (Millipore). The filters were then washed twice with the assay buffer and placed in scintillation vials with a liquid scintillation cocktail. […] All the assays were made in duplicate and the inhibitory constants (Ki) were estimated.
LO–labeled ligand concentration, KD–dissociation constant of labeled ligand

α1D-adrenoreceptors = target: T3, α1D-adrenoreceptors (Rattus norvegicus, UniProt P23944); assay: Functional bioassay, isolated rat aorta, noradrenaline contraction; type: biochemical; design: had aorta removed, denuded of endothelium and incubated in the Krebs-Henseleit solution; from tissue; host or cells: isolated rat aorta rings; details: noradrenaline as agonist; for Kb: read-out: pA2 ± S.E.M., α1D (converted)
T3 sequence (P23944 1-561): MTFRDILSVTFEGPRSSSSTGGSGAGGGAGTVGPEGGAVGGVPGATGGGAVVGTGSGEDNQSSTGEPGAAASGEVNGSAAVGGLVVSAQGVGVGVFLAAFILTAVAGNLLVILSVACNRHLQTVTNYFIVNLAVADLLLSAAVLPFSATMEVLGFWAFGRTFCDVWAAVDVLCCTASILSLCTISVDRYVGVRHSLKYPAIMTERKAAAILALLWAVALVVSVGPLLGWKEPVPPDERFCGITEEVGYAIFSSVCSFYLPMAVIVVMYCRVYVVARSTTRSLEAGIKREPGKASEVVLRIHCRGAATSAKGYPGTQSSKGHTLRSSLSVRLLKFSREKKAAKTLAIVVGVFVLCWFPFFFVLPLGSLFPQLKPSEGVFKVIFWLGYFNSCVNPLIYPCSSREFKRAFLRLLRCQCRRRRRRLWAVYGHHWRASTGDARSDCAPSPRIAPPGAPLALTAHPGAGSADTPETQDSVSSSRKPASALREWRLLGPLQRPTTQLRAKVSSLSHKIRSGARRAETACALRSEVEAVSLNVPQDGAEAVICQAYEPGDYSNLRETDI
Protocol: Finally, the influence on α1D-adrenoreceptors was investigated using the isolated rat aorta. […] The aorta rings were maintained at optimal tension of 2.0 g. During 3 h of equilibration tissues were stimulated with noradrenaline three times (0.3 μM). Two cumulative concentration-response curves to noradrenaline, at an interval of 60 min, were established on each tissue both in the presence and absence of antagonist. The incubation with antagonists went on for 30 min. The experiments were carried out in the constant presence of yohimbine (0.1 μM) and propranolol (1 μM) to block α2- and β-adrenoceptors, respectively.
as §1

[2] = system: blood pressure in normotensive rats; assay: Influence on blood pressure in normotensive rats; type: in vivo, rat; design: Systolic pressure / Diastolic pressure: unit not given beside the values; details: for Diastolic pressure / Systolic pressure: anesthetized normotensive rats; for Diastolic pressure / Systolic pressure / reduction of diastolic blood pressure / reduction of systolic blood pressure: lowest hypotensive dose i.p.; for lowest hypotensive dose / reduction of diastolic blood pressure / reduction of systolic blood pressure: normotensive rats; for lowest hypotensive dose: lowest dose significantly lowering systolic and diastolic blood pressure; for reduction of diastolic blood pressure / reduction of systolic blood pressure: period of significant effect
Protocol: The tested compounds were administered i.p. after 15 min of stabilization period. The compounds were administered at the dose 10 mg/kg.

[3] = dose 0.1 mg/kg i.p. 45 min before adrenaline 20 μg/kg i.v.
[4] = dose 0.2 mg/kg i.p. 45 min before adrenaline 20 μg/kg i.v.
[5] = dose 0.3 mg/kg i.p. 45 min before adrenaline 20 μg/kg i.v.
[6] = Control (before administration)
[7] = dose 2.5 mg/kg i.p. 45 min before adrenaline 20 μg/kg i.v.
[8] = dose 5 mg/kg i.p. 45 min before adrenaline 20 μg/kg i.v.
[9] = dose 10 mg/kg i.p. 45 min before adrenaline 20 μg/kg i.v.

T2 sequence (P18090 whole entry): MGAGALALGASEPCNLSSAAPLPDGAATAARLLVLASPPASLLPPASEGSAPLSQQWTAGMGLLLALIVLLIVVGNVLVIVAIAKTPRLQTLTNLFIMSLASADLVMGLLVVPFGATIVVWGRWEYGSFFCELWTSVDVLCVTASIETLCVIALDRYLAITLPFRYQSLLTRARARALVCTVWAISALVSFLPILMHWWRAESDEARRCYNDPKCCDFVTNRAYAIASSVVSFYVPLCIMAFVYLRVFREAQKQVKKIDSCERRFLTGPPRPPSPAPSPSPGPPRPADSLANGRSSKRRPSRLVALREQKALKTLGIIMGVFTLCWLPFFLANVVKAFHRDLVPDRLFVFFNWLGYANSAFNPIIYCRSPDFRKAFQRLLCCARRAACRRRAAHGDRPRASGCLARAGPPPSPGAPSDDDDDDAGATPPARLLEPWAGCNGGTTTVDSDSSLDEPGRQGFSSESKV

| Compound | ED50 [1] | Schild slope ± S.E.M., α1B (α1B-adrenoceptors) | Kb (α1B-adrenoceptors) | Schild slope ± S.E.M., α1D (α1D-adrenoreceptors) | Kb (α1D-adrenoreceptors) | Diastolic pressure ([2]; 5 min) | Systolic pressure ([2]; 5 min) | Diastolic pressure ([2]; 10 min) | Systolic pressure ([2]; 10 min) | Diastolic pressure ([2]; 20 min) | Systolic pressure ([2]; 20 min) | Diastolic pressure ([2]; 30 min) | Systolic pressure ([2]; 30 min) | Diastolic pressure ([2]; 40 min) | Systolic pressure ([2]; 40 min) | Diastolic pressure ([2]; 50 min) | Systolic pressure ([2]; 50 min) | Diastolic pressure ([2]; 60 min) | Systolic pressure ([2]; 60 min) | Diastolic pressure [2, 6] | also measured |
| --- | --- | --- | --- | --- | --- | --- | --- | --- | --- | --- | --- | --- | --- | --- | --- | --- | --- | --- | --- | --- | --- |
| COc1ccccc1N1CCN(CCCOc2cc(C)cc(C)c2C)CC1 [HBK-19, 1N-[3-(2,3,5-trimethylphenoxy)propyl]-4N-(2-methoxyphenyl)piperazine hydrochloride] | 0.21 mg/kg | 1.06 ± 0.05 | 8.51 nM | 1.03 ± 0.09 | 4.9 nM | 94.5 ± 2.6 | 121.0 ± 4.0^b | 87.5 ± 0.4^c | 116.0 ± 3.5^c | 89.0 ± 2.3^b | 111.5 ± 3.2^c | 87.0 ± 2.9^c | 110.0 ± 2.3^c | 84.5 ± 1.4^c | 107.5 ± 3.2^c | 83.5 ± 1.4^c | 106.0 ± 3.5^c | 84.0 ± 0.6^c | 106.0 ± 4.0^c | 98.0 ± 4.6 | Bigeminy (%) [1, 3]: 33.3%; Blocks (%) [1, 3]: 50.0%; Bradycardia (%) [1, 3]: 66.7%; Extrasystoles (%) [1, 3]: 66.7%; Bigeminy (%) [1, 4]: 16.7%; Blocks (%) [1, 4]: 33.3%; Bradycardia (%) [1, 4]: 33.3%; Extrasystoles (%) [1, 4]: 50.0%; Blocks (%) [1, 5]: 16.7%; Bradycardia (%) [1, 5]: 16.7%; Extrasystoles (%) [1, 5]: 16.7%; Ki (β1-adrenergic receptor): > 10000 nM; Systolic pressure [2, 6]: 127.0 ± 4.0; lowest hypotensive dose [2]: 0.625 mg/kg; reduction of diastolic blood pressure [2]: 9−15%; reduction of systolic blood pressure [2]: 5−17% |
| COc1ccccc1N1CCN(CCOCCOc2c(C)cccc2C)CC1.Cl [HBK-14, 1-[(2,6-dimethylphenoxy)ethoxyethyl]-4-(2-methoxyphenyl)piperazine hydrochloride] | 3.88 mg/kg | 1.03 ± 0.03 | 20 nM | 1.09 ± 0.10 | 1.38 nM | 105.2 ± 6.1 | 135.2 ± 7.3 | 103.0 ± 5.8 | 131.2 ± 6.8^c | 97.3 ± 6.0^c | 127.3 ± 6.6^c | 95.2 ± 6.1^c | 125.3 ± 7.0^c | 92.3 ± 6.2^c | 124.2 ± 7.0^c | 94.0 ± 5.8^c | 127.3 ± 6.3^c | 98.0 ± 5.1^c | 128.2 ± 5.4^c | 106.7 ± 4.3 | Bigeminy (%) [1, 7]: 50.0%; Blocks (%) [1, 7]: 83.3%; Bradycardia (%) [1, 7]: 83.3%; Extrasystoles (%) [1, 7]: 100.0%; Bigeminy (%) [1, 8]: 33.3%; Blocks (%) [1, 8]: 33.3%; Bradycardia (%) [1, 8]: 50.0%; Extrasystoles (%) [1, 8]: 50.0%; Bigeminy (%) [1, 9]: 16.7%; Blocks (%) [1, 9]: 33.3%; Bradycardia (%) [1, 9]: 50.0%; Extrasystoles (%) [1, 9]: 16.7%; Systolic pressure [2, 6]: 138.3 ± 6.8; lowest hypotensive dose [2]: 0.625 mg/kg; reduction of diastolic blood pressure [2]: 9−14%; reduction of systolic blood pressure [2]: 5−10% |
| COc1ccccc1N1CCN(CCOCCOc2c(C)cccc2Cl)CC1.Cl [HBK-15, 1-[(2-chloro-6-methylphenoxy)ethoxyethyl]-4-(2-methoxyphenyl)piperazine hydrochloride] | 4.8 mg/kg | 0.96 ± 0.01 | 21.4 nM | 1.09 ± 0.09 | 1.26 nM | 96.3 ± 3.7^c | 121.2 ± 4.8^c | 92.0 ± 4.3^c | 116.3 ± 6.0^c | 88.5 ± 3.5^c | 112.0 ± 5.5^c | 88.3 ± 2.9^c | 112.2 ± 4.2^c | 91.0 ± 3.2^c | 112.5 ± 4.4^c | 90.2 ± 2.7^c | 113.2 ± 3.7^c | 93.0 ± 1.2^c | 117.3 ± 3.0^c | 110.3 ± 2.2 | Bigeminy (%) [1, 7]: 33.3%; Blocks (%) [1, 7]: 66.7%; Bradycardia (%) [1, 7]: 66.7%; Extrasystoles (%) [1, 7]: 66.7%; Bigeminy (%) [1, 8]: 16.7%; Blocks (%) [1, 8]: 50.0%; Bradycardia (%) [1, 8]: 66.7%; Extrasystoles (%) [1, 8]: 50.0%; Bigeminy (%) [1, 9]: 16.7%; Blocks (%) [1, 9]: 33.3%; Bradycardia (%) [1, 9]: 50.0%; Extrasystoles (%) [1, 9]: 33.3%; Systolic pressure [2, 6]: 139.0 ± 2.7; lowest hypotensive dose [2]: 5.0 mg/kg; reduction of diastolic blood pressure [2]: 13−20%; reduction of systolic blood pressure [2]: 13−19% |
